# The source made the active and inactive calls. The rule behind the calls is not given here.
# Experiments:
# [1] = Inhibition of concanavalin A-induced cell proliferation of T cells (unknown origin) at 10 uM after 72 hrs by MTT assay; format: functional
# B-cell = assay: Inhibition of LPS-induced cell proliferation of B cells (unknown origin) at 10 uM after 72 hrs by MTT assay; format: functional
# [2] = Solubility in water; format: physicochemical
# THP-1 [3] = assay: Inhibition of LPS-induced IL6 production in human THP1 cells after 24 hrs; format: functional, cell-based; details: THP-1, 24 h
# THP-1 [4] = assay: Inhibition of LPS-induced TNFalpha production in human THP1 cells after 24 hrs; format: functional, cell-based; details: THP-1, 24 h
# THP-1 [5] = assay: Inhibition of LPS-induced IL-1beta production in human THP1 cells at 10 uM after 24 hrs; format: functional; details: THP-1, 24 h
# THP-1 [6] = assay: Inhibition of LPS-induced nitric oxide production in human THP1 cells at 10 uM after 24 hrs by Griess assay; format: functional; details: THP-1, 24 h
# THP-1 [7] = assay: Cytotoxicity against human THP1 cells after 24 hrs by MTT assay; format: cell-based; details: THP-1, 24 h
# THP-1 [8] = assay: Cytotoxicity against human THP1 cells after 48 hrs by MTT assay; format: cell-based; details: THP-1, 48 h
# [9] = Therapeutic index, ratio of cytotoxic IC50 for human THP1 cells by MTT assay to IC50 for inhibition of LPS-induced IL6 production in human THP1 cells; format: cell-based, THP-1; details: read-out: Ratio IC50
# Mus musculus [10] = assay: Antiinflammatory activity in BALB/c mouse assessed as serum TNFalpha level at 10 mg/kg, po qd for 5 days followed by LPS challenge 1 hr after last compound dose on fifth day and measured 4 hrs post LPS challenge by ELISA method (reference value: 717 +/- 218 pg/mL); format: functional
# Mus musculus [11] = assay: Antiinflammatory activity in BALB/c mouse assessed as serum TNFalpha level at 100 mg/kg, po qd for 5 days followed by LPS challenge 1 hr after last compound dose on fifth day and measured 4 hrs post LPS challenge by ELISA method (reference value: 717 +/- 218 pg/mL); format: functional
# Mus musculus [12] = assay: Antiinflammatory activity in BALB/c mouse assessed as serum IL6 level at 10 mg/kg, po qd for 5 days followed by LPS challenge 1 hr after last compound dose on fifth day and measured 4 hrs post LPS challenge by ELISA method (reference value: 410 +/- 95 pg/mL); format: functional
# Mus musculus [13] = assay: Antiinflammatory activity in BALB/c mouse assessed as serum IL6 level at 100 mg/kg, po qd for 5 days followed by LPS challenge 1 hr after last compound dose on fifth day and measured 4 hrs post LPS challenge by ELISA method (reference value: 410 +/- 95 pg/mL); format: functional
# Mus musculus [14] = assay: Antiinflammatory activity in BALB/c mouse assessed as serum nitric oxide level at 10 mg/kg, po qd for 5 days followed by LPS challenge 1 hr after last compound dose on fifth day and measured 4 hrs post LPS challenge by Griess assay (reference value: 6.95 +/- 1.81 uM); format: functional
# Mus musculus [15] = assay: Antiinflammatory activity in BALB/c mouse assessed as serum nitric oxide level at 100 mg/kg, po qd for 5 days followed by LPS challenge 1 hr after last compound dose on fifth day and measured 4 hrs post LPS challenge by Griess assay (reference value: 6.95 +/- 1.81 uM); format: functional
# Mus musculus [16] = assay: Antiarthritic activity in BALB/c mouse assessed as reduction in SRBC-induced blood IFNgamma level administered orally once daily for 14 days measured 4 hrs post last dose by ELISA method; format: functional, organism-based
# Mus musculus [17] = assay: Antiarthritic activity in BALB/c mouse assessed as reduction in SRBC-induced blood IL4 level administered orally once daily for 14 days measured 4 hrs post last dose by ELISA method; format: functional, organism-based
# Mus musculus [18] = assay: Antiarthritic activity in BALB/c mouse assessed as reduction in SRBC-induced blood IL2 level administered orally once daily for 14 days measured 4 hrs post last dose by ELISA method; format: functional, organism-based
# Mus musculus [19] = assay: Immunosuppressive activity in BALB/c mouse assessed as reduction in SRBC-induced humoral immunity by measuring IgM level at 3 to 30 mg/kg, po administered once daily for 14 days measured 4 hrs post last dose; format: functional, organism-based
# Mus musculus [20] = assay: Immunosuppressive activity in BALB/c mouse assessed as reduction in SRBC-induced humoral immunity by measuring IgG level at 3 to 30 mg/kg, po administered once daily for 14 days measured 4 hrs post last dose; format: functional, organism-based
# Mus musculus [21] = assay: Immunosuppressive activity in BALB/c mouse assessed as reduction in SRBC-induced DTH response at 3 to 30 mg/kg, po administered once daily for 14 days measured 4 hrs post last dose; format: functional, organism-based
# Mus musculus [22] = assay: Antiarthritic activity in DBA/1J mouse collagen-induced arthritis model assessed as reduction in paw swelling at 30 mg/kg, po administered once daily for 49 days starting from onset of disease; format: functional; details: 1176 h
# Mus musculus [23] = assay: Antiarthritic activity in DBA/1J mouse collagen-induced arthritis model assessed as reduction in anticollagen antibody IgG1 level at 3 to 30 mg/kg, po administered once daily for 49 days starting from onset of disease and measured after 14 days of disease onset by ELISA method; format: functional, organism-based
# Mus musculus [24] = assay: Antiarthritic activity in DBA/1J mouse collagen-induced arthritis model assessed as reduction in anticollagen antibody IgG2a level at 3 to 30 mg/kg, po administered once daily for 49 days starting from onset of disease and measured after 14 days of disease onset by ELISA method; format: functional, organism-based
# Mus musculus [25] = assay: Antiarthritic activity in DBA/1J mouse collagen-induced arthritis model assessed as reduction in anticollagen antibody IgG1 level at 3 to 30 mg/kg, po administered once daily for 49 days starting from onset of disease and measured after 49 days of disease onset by ELISA method; format: functional, organism-based
# Mus musculus [26] = assay: Antiarthritic activity in DBA/1J mouse collagen-induced arthritis model assessed as reduction in anticollagen antibody IgG2a level at 3 to 30 mg/kg, po administered once daily for 49 days starting from onset of disease and measured after 49 days of disease onset by ELISA method; format: functional, organism-based
# Mus musculus [27] = assay: Antiarthritic activity in DBA/1J mouse collagen-induced arthritis model assessed as reduction in TNFalpha level at 3 to 30 mg/kg, po administered once daily for 49 days starting from onset of disease and measured after 3 to 49 days of disease onset by ELISA method; format: functional, organism-based
# Mus musculus [28] = assay: Antiarthritic activity in DBA/1J mouse collagen-induced arthritis model assessed as reduction in IL6 level at 3 to 30 mg/kg, po administered once daily for 49 days starting from onset of disease and measured after 3 to 49 days of disease onset by ELISA method; format: functional, organism-based
# Mus musculus [29] = assay: Antiarthritic activity in DBA/1J mouse collagen-induced arthritis model assessed as reduction in IL-1beta level at 3 to 30 mg/kg, po administered once daily for 49 days starting from onset of disease and measured after 3 to 49 days of disease onset by ELISA method; format: functional, organism-based
# THP-1 [30] = assay: Inhibition of NFkappaB expression in human THP1 cells up to 100 uM by Western blotting method; format: functional, cell-based
# THP-1 [31] = assay: Inhibition of NFkappaB p65/rel expression in human THP1 cells at 20 to 100 uM by Western blotting method; format: functional, cell-based
# [32] = biological target: Inhibitor of NF-kappa-B kinase (IKK) (Homo sapiens) (UniProt O14920+O15111+Q9Y6K9); assay: Inhibition of IKKbeta expression in human THP1 cells at 20 to 100 uM by Western blotting method; format: functional, cell-based; details: THP-1
# [33] = Solubility in PBS buffer; format: physicochemical
# [34] = Solubility in SGF solution; format: physicochemical
# [35] = Solubility in SIF solution; format: physicochemical
compound,measurement,setting,value
COc1c(O)c(CN2CCC[C@H]2CO)c2c(c1O)[C@@H]1O[C@H](CO)[C@@H](O)[C@H](O)[C@H]1OC2=O,inhibition at 10 µM,[1],37.5%
same,inhibition at 10 µM,B-cell,31.6%
same,solubility,[2],> 1500 µg/mL
same,IC50,THP-1 [3],0.745 µM
same,IC50,THP-1 [4],13.5 µM
COc1c(O)c(CN2CCC(Cc3ccccc3)CC2)c2c(c1O)[C@@H]1O[C@H](CO)[C@@H](O)[C@H](O)[C@H]1OC2=O,inhibition at 10 µM,[1],16%
same,inhibition at 10 µM,B-cell,18.2%
same,solubility,[2],> 1500 µg/mL
same,IC50,THP-1 [3],0.371 µM
same,IC50,THP-1 [4],> 30 µM
CCN1CCN(Cc2c(O)c(OC)c(O)c3c2C(=O)O[C@@H]2[C@@H](O)[C@H](O)[C@@H](CO)O[C@@H]32)CC1,inhibition at 10 µM,[1],34.2%
same,inhibition at 10 µM,B-cell,44.2%
same,solubility,[2],> 1500 µg/mL
same,IC50,THP-1 [3],0.195 µM
same,IC50,THP-1 [4],> 30 µM
COc1c(O)cc2c(c1O)[C@@H]1O[C@H](CO)[C@@H](O)[C@H](O)[C@H]1OC2=O [BERGENIN],inhibition at 10 µM,[1],54.8%
same,inhibition at 10 µM,B-cell,51.2%
same,solubility,[2],> 1500 µg/mL
same,IC50,THP-1 [3],0.208 µM
same,IC50,THP-1 [4],12.5 µM
same,inhibition at 10 µM,THP-1 [5],24%
same,inhibition at 10 µM,THP-1 [6],39%
same,IC50,THP-1 [7],130 µM
same,IC50,THP-1 [8],84 µM
same,selectivity ratio,[9],> 400
same,Activity,Mus musculus [10],667 pg/mL
same,Activity,Mus musculus [11],509 pg/mL
same,Activity,Mus musculus [12],282 pg/mL
same,Activity,Mus musculus [13],55 pg/mL
same,Activity,Mus musculus [14],2.62 µM
same,Activity,Mus musculus [15],3.29 µM
same,inhibition,Mus musculus [16],Dose-dependent effect
same,inhibition,Mus musculus [17],Dose-dependent effect
same,inhibition,Mus musculus [18],Dose-dependent effect
same,inhibition,Mus musculus [19],Active
same,inhibition,Mus musculus [20],Active
same,inhibition,Mus musculus [21],Active
same,inhibition in vivo at 30 mg/kg,Mus musculus [22],32%
same,inhibition,Mus musculus [23],Active
same,inhibition,Mus musculus [24],Active
same,inhibition,Mus musculus [25],Active
same,inhibition,Mus musculus [26],Active
same,inhibition,Mus musculus [27],Active
same,inhibition,Mus musculus [28],Active
same,inhibition,Mus musculus [29],Active
same,inhibition,THP-1 [30],inactive
same,inhibition,THP-1 [31],Active
same,inhibition,[32],Active
COc1c(O)c(CN2CCN(C)CC2)c2c(c1O)[C@@H]1O[C@H](CO)[C@@H](O)[C@H](O)[C@H]1OC2=O,inhibition at 10 µM,[1],36.9%
same,inhibition at 10 µM,B-cell,49%
same,solubility,[2],> 1500 µg/mL
same,IC50,THP-1 [3],0.141 µM
same,IC50,THP-1 [4],> 30 µM
same,inhibition at 10 µM,THP-1 [5],41%
same,inhibition at 10 µM,THP-1 [6],41%
same,IC50,THP-1 [7],107 µM
same,IC50,THP-1 [8],68 µM
same,selectivity ratio,[9],> 400
same,Activity,Mus musculus [10],672 pg/mL
same,Activity,Mus musculus [11],398 pg/mL
same,Activity,Mus musculus [12],282 pg/mL
same,Activity,Mus musculus [13],58 pg/mL
same,Activity,Mus musculus [14],2.87 µM
same,Activity,Mus musculus [15],1.24 µM
same,inhibition,Mus musculus [16],Dose-dependent effect
same,inhibition,Mus musculus [17],Dose-dependent effect
same,inhibition,Mus musculus [18],Dose-dependent effect
same,inhibition,Mus musculus [19],Active
same,inhibition,Mus musculus [20],Active
same,inhibition,Mus musculus [21],Active
same,inhibition in vivo at 30 mg/kg,Mus musculus [22],28%
same,inhibition,Mus musculus [23],Active
same,inhibition,Mus musculus [24],Active
same,inhibition,Mus musculus [25],Active
same,inhibition,Mus musculus [26],Active
same,inhibition,Mus musculus [27],Active
same,inhibition,Mus musculus [28],Active
same,inhibition,Mus musculus [29],Active
same,inhibition,[32],Active
same,solubility,[33],> 1500 µg/mL
same,solubility,[34],> 1500 µg/mL
same,solubility,[35],> 1500 µg/mL
COc1c(O)c(CN2CCCCC2)c2c(c1O)[C@@H]1O[C@H](CO)[C@@H](O)[C@H](O)[C@H]1OC2=O,inhibition at 10 µM,[1],13%
same,inhibition at 10 µM,B-cell,34.8%
same,solubility,[2],> 1500 µg/mL
same,IC50,THP-1 [3],0.317 µM
same,IC50,THP-1 [4],> 30 µM
CCOC(=O)N1CCN(Cc2c(O)c(OC)c(O)c3c2C(=O)O[C@@H]2[C@@H](O)[C@H](O)[C@@H](CO)O[C@@H]32)CC1,inhibition at 10 µM,[1],27%
same,inhibition at 10 µM,B-cell,9%
same,solubility,[2],> 1500 µg/mL
same,IC50,THP-1 [3],0.177 µM
same,IC50,THP-1 [4],> 30 µM

# From ChEMBL document CHEMBL3351580, “Pyrano-isochromanones as IL-6 inhibitors: synthesis, in vitro and in vivo antiarthritic activity” (J Med Chem, 2014)
